Experimental data published in patent US10793564B2, “Amino acid compounds and methods of use” (Pliant Therapeutics, Inc., priority 2018, dated 2020).

These molecules were tested against recombinant human integrin αVβ6 (Homo sapiens (Human), UniProt P06756+P18564) (assay: Solid phase integrin αVβ6 binding assay). Settings: inhibition of recombinant TGFβ1 LAP binding to coated integrin, IC50 presented in four ranges, read-out: αvβ6 Inhibition IC50 (nM) - range.
In short: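 Plates coated with recombinant human αVβ6 (2 μg/mL) and blocked; compounds competed with TGFβ1 LAP (0.67 μg/mL) in Mn2+ (0.5 mM)/BSA/sucrose TBS for 2 h at 25° C. Bound LAP detected by biotin anti-LAP and peroxidase-streptavidin; IC50 by four-parameter logistic fit.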

Sequence of recombinant human integrin αVβ6 (P06756 31-992): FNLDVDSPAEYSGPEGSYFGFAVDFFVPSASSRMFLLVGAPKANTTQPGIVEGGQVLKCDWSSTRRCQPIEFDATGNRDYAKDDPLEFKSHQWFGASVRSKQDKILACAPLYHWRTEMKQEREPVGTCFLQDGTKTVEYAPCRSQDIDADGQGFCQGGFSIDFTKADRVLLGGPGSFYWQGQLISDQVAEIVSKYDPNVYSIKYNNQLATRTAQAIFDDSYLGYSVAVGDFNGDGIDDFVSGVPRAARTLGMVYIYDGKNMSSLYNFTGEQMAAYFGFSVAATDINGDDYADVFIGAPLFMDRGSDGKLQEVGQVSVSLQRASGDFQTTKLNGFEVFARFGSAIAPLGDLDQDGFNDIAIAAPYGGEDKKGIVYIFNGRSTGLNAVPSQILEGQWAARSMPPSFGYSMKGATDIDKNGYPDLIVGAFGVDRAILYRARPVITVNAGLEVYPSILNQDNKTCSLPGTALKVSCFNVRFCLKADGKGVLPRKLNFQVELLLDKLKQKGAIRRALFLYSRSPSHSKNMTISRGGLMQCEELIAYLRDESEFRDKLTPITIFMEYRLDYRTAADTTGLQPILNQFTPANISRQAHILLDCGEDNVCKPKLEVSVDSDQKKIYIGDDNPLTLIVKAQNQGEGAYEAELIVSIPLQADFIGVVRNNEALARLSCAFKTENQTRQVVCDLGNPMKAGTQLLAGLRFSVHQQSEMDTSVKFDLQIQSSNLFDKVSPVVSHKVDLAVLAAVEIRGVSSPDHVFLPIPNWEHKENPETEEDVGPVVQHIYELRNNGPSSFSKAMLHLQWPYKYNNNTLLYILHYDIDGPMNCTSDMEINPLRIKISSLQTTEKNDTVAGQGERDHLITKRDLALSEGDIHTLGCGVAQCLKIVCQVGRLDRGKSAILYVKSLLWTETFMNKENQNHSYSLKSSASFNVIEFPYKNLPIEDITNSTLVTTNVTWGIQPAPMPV
Sequence of recombinant human integrin αVβ6 (P18564 22-707): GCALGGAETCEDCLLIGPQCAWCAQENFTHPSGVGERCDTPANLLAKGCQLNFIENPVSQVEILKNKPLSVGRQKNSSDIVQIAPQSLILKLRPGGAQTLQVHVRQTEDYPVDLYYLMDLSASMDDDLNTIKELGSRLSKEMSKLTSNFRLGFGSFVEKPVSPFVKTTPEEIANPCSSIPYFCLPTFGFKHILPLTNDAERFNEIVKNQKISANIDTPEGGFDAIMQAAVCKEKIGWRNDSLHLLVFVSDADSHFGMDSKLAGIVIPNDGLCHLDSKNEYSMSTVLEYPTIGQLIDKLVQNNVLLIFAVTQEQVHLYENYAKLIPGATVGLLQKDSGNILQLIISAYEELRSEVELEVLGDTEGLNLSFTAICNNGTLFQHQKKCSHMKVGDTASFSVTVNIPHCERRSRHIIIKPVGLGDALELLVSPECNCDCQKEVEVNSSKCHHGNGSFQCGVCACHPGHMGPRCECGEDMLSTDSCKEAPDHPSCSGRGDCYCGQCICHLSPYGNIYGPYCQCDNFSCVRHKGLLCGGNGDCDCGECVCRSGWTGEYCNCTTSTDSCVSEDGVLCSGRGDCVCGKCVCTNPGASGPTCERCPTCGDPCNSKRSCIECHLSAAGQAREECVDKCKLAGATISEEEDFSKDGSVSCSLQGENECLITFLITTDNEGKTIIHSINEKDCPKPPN

Question: With `COC[C@@H](F)CN(CCCCc1ccc2c(n1)NCCC2)CC[C@H](Nc1ncc(Br)cn1)C(=O)O` [Compound 86, (S)-2-((5-bromopyrimidin-2-yl)amino)-4-(((S)-2-fluoro-3-methoxypropyl) (4-(5,6,7,8-tetrahydro-1,8-naphthyridin-2-yl)butyl)amino) butanoic Acid] as the molecule, how does the IC50 read?
Answer: 50 to 250 nM

Question: How did the IC50 turn out when `COC[C@@H](F)CN(CCCCc1ccc2c(n1)NCCC2)CC[C@H](Nc1ccnc(C(F)(F)F)n1)C(=O)O` [Compound 87, (S)-4-(((S)-2-fluoro-3-methoxypropyl) (4-(5,6,7,8-tetrahydro-1,8-naphthyridin-2-yl)butyl)amino)-2-((2-(trifluoromethyl)pyrimidin-4-yl)amino) butanoic Acid] was run?
Answer: 250 to 1000 nM

Question: `Cn1ncc2c(N[C@@H](CCN(CCCCc3ccc4c(n3)NCCC4)CC(F)F)C(=O)O)ncnc21` [Compound 88, (S)-4-((2,2-difluoroethyl) (4-(5,6,7,8-tetrahydro-1,8-naphthyridin-2-yl)butyl)amino)-2-((1-methyl-1H-pyrazolo[3,4-d]pyrimidin-4-yl)amino) butanoic Acid] was tested. Which IC50 did it give?
Answer: > 1000 nM

Question: With `O=C(O)[C@H](CCN(CCCCc1ccc2c(n1)NCCC2)CCOc1ccccc1)Nc1ncc(C(F)(F)F)cn1` [Compound 89, (S)-4-((2-phenoxyethyl) (4-(5,6,7,8-tetrahydro-1,8-naphthyridin-2-yl)butyl)amino)-2-((5-(trifluoromethyl)pyrimidin-2-yl)amino) butanoic Acid] as the molecule, how does the IC50 read?
Answer: < 50 nM

Question: `O=C(O)[C@H](CCN(CCCCc1ccc2c(n1)NCCC2)CCOc1ccccc1)Nc1ncnc2[nH]ncc12` [Compound 90, (S)-2-((1H-pyrazolo[3,4-d]pyrimidin-4-yl)amino)-4-((2-phenoxyethyl) (4-(5,6,7,8-tetrahydro-1,8-naphthyridin-2-yl)butyl)amino) butanoic Acid] was tested. Which IC50 did it give?
Answer: < 50 nM

Question: `O=C(O)[C@H](CCN(CCCCc1ccc2c(n1)NCCC2)CCOc1ccccc1)Nc1cc(-n2cccn2)ncn1` [Compound 91, (S)-2-((6-(1H-pyrazol-1-yl)pyrimidin-4-yl)amino)-4-((2-phenoxyethyl) (4-(5,6,7,8-tetrahydro-1,8-naphthyridin-2-yl)butyl)amino) butanoic Acid] was tested. Which IC50 did it give?
Answer: < 50 nM

Question: For `O=C(O)[C@H](CCN(CCCCc1ccc2c(n1)NCCC2)CCOc1ccccc1)Nc1ccnc(C(F)(F)F)n1` [Compound 92, (S)-4-((2-phenoxyethyl) (4-(5,6,7,8-tetrahydro-1,8-naphthyridin-2-yl)butyl)amino)-2-((2-(trifluoromethyl)pyrimidin-4-yl)amino) butanoic Acid], which IC50 is on record?
Answer: < 50 nM

Question: How did the IC50 turn out when `O=C(O)[C@H](CCN(CCCCc1ccc2c(n1)NCCC2)CCOc1ccccc1)Nc1cc(-c2ccccc2)ncn1` [Compound 93, (S)-4-((2-phenoxyethyl) (4-(5,6,7,8-tetrahydro-1,8-naphthyridin-2-yl)butyl)amino)-2-((6-phenylpyrimidin-4-yl)amino) butanoic Acid] was run?
Answer: < 50 nM

Question: With `O=C(O)[C@H](CCN(CCCCc1ccc2c(n1)NCCC2)CCOc1ccccc1)Nc1nc(-c2cccnc2)nc2ccccc12` [Compound 94, (S)-4-((2-phenoxyethyl) (4-(5,6,7,8-tetrahydro-1,8-naphthyridin-2-yl)butyl)amino)-2-((2-(pyridin-3-yl)quinazolin-4-yl)amino) butanoic Acid] as the molecule, how does the IC50 read?
Answer: < 50 nM

Question: How did the IC50 turn out when `O=C(O)[C@H](CCN(CCCCc1ccc2c(n1)NCCC2)CC(F)F)Nc1ncc(C(F)(F)F)cn1` [Compound 95, (S)-4-((2,2-difluoroethyl) (4-(5,6,7,8-tetrahydro-1,8-naphthyridin-2-yl)butyl)amino)-2-((5-(trifluoromethyl)pyrimidin-2-yl)amino) butanoic Acid] was run?
Answer: > 1000 nM

Question: `O=C(O)[C@H](CCN(CCCCc1ccc2c(n1)NCCC2)CC(F)F)Nc1ncc(Br)cn1` [Compound 96, (S)-2-((5-bromopyrimidin-2-yl)amino)-4-((2,2-difluoroethyl) (4-(5,6,7,8-tetrahydro-1,8-naphthyridin-2-yl)butyl)amino) butanoic Acid] was tested. Which IC50 did it give?
Answer: > 1000 nM

Question: `O=C(O)[C@H](CCN(CCCCc1ccc2c(n1)NCCC2)CC(F)F)Nc1ccnc(C(F)(F)F)n1` [Compound 97, (S)-4-((2,2-difluoroethyl) (4-(5,6,7,8-tetrahydro-1,8-naphthyridin-2-yl)butyl)amino)-2-((2-(trifluoromethyl)pyrimidin-4-yl)amino) butanoic Acid] was tested. Which IC50 did it give?
Answer: > 1000 nM

Question: How did the IC50 turn out when `O=C(O)[C@H](CCN(CCCCc1ccc2c(n1)NCCC2)CC(F)F)Nc1cc(-n2cccn2)ncn1` [Compound 98, (S)-2-((6-(1H-pyrazol-1-yl)pyrimidin-4-yl)amino)-4-((2,2-difluoroethyl) (4-(5,6,7,8-tetrahydro-1,8-naphthyridin-2-yl)butyl)amino) butanoic Acid] was run?
Answer: > 1000 nM

Question: With `O=C(O)[C@H](CCN(CCCCc1ccc2c(n1)NCCC2)CC(F)F)Nc1nc(-c2cccnc2)nc2ccccc12` [Compound 99, (S)-4-((2,2-difluoroethyl) (4-(5,6,7,8-tetrahydro-1,8-naphthyridin-2-yl)butyl)amino)-2-((2-(pyridin-3-yl)quinazolin-4-yl)amino) butanoic Acid] as the molecule, how does the IC50 read?
Answer: 250 to 1000 nM

Question: How did the IC50 turn out when `CO[C@H](C)CN(CCCCc1ccc2c(n1)NCCC2)CC[C@H](Nc1nc(-c2cccnc2)nc2ccccc12)C(=O)O` [Compound 100, (S)-4-(((R)-2-methoxypropyl) (4-(5,6,7,8-tetrahydro-1,8-naphthyridin-2-yl)butyl)amino)-2-((2-(pyridin-3-yl)quinazolin-4-yl)amino) butanoic Acid] was run?
Answer: < 50 nM

Question: With `CS(=O)(=O)CCN(CCCCc1ccc2c(n1)NCCC2)CC[C@H](Nc1ncc(C(F)(F)F)cn1)C(=O)O` [Compound 102, (S)-4-((2-(methylsulfonyl)ethyl) (4-(5,6,7,8-tetrahydro-1,8-naphthyridin-2-yl)butyl)amino)-2-((5-(trifluoromethyl)pyrimidin-2-yl)amino) butanoic Acid] as the molecule, how does the IC50 read?
Answer: > 1000 nM

Question: `CS(=O)(=O)CCN(CCCCc1ccc2c(n1)NCCC2)CC[C@H](Nc1ncc(Br)cn1)C(=O)O` [Compound 103, (S)-2-((5-bromopyrimidin-2-yl)amino)-4-((2-(methylsulfonyl)ethyl) (4-(5,6,7,8-tetrahydro-1,8-naphthyridin-2-yl)butyl)amino) butanoic Acid] was tested. Which IC50 did it give?
Answer: > 1000 nM

Question: With `CS(=O)(=O)CCN(CCCCc1ccc2c(n1)NCCC2)CC[C@H](Nc1ccnc(C(F)(F)F)n1)C(=O)O` [Compound 104, (S)-4-((2-(methylsulfonyl)ethyl) (4-(5,6,7,8-tetrahydro-1,8-naphthyridin-2-yl)butyl)amino)-2-((2-(trifluoromethyl)pyrimidin-4-yl)amino) butanoic Acid] as the molecule, how does the IC50 read?
Answer: > 1000 nM

Question: `COC[C@@H](F)CN(CCCCc1ccc2c(n1)NCCC2)CC[C@H](Nc1ncnc2c1cnn2C)C(=O)O` [Compound 105, (S)-4-(((S)-2-fluoro-3-methoxypropyl) (4-(5,6,7,8-tetrahydro-1,8-naphthyridin-2-yl)butyl)amino)-2-((1-methyl-1H-pyrazolo[3,4-d]pyrimidin-4-yl)amino) butanoic Acid] was tested. Which IC50 did it give?
Answer: < 50 nM

Question: With `CO[C@H](C)CN(CCCCc1ccc2c(n1)NCCC2)CC[C@H](Nc1ccncn1)C(=O)O` [Compound 106, (S)-4-(((R)-2-methoxypropyl) (4-(5,6,7,8-tetrahydro-1,8-naphthyridin-2-yl)butyl)amino)-2-(pyrimidin-4-ylamino) butanoic Acid] as the molecule, how does the IC50 read?
Answer: < 50 nM

Question: `CS(=O)(=O)CCN(CCCCc1ccc2c(n1)NCCC2)CC[C@H](Nc1nc(-c2cccnc2)nc2ccccc12)C(=O)O` [Compound 107, (S)-4-((2-(methylsulfonyl)ethyl) (4-(5,6,7,8-tetrahydro-1,8-naphthyridin-2-yl)butyl)amino)-2-((2-(pyridin-3-yl)quinazolin-4-yl)amino) butanoic Acid] was tested. Which IC50 did it give?
Answer: 250 to 1000 nM

Question: `COC[C@@H](F)CN(CCCCc1ccc2c(n1)NCCC2)CC[C@H](Nc1cc(-n2cccn2)ncn1)C(=O)O` [Compound 108, (S)-2-((6-(1H-pyrazol-1-yl)pyrimidin-4-yl)amino)-4-(((S)-2-fluoro-3-methoxypropyl) (4-(5,6,7,8-tetrahydro-1,8-naphthyridin-2-yl)butyl)amino) butanoic Acid] was tested. Which IC50 did it give?
Answer: > 1000 nM

Question: How did the IC50 turn out when `COC[C@@H](F)CN(CCCCc1ccc2c(n1)NCCC2)CC[C@H](Nc1nc(-c2cccnc2)nc2ccccc12)C(=O)O` [Compound 109, (S)-4-(((S)-2-fluoro-3-methoxypropyl) (4-(5,6,7,8-tetrahydro-1,8-naphthyridin-2-yl)butyl)amino)-2-((2-(pyridin-3-yl)quinazolin-4-yl)amino) butanoic Acid] was run?
Answer: < 50 nM

Question: `COC[C@@H](F)CN(CCCCc1ccc2c(n1)NCCC2)CC[C@H](Nc1ncncc1-c1ccccc1)C(=O)O` [Compound 110, (S)-4-(((S)-2-fluoro-3-methoxypropyl) (4-(5,6,7,8-tetrahydro-1,8-naphthyridin-2-yl)butyl)amino)-2-((5-phenylpyrimidin-4-yl)amino) butanoic Acid] was tested. Which IC50 did it give?
Answer: < 50 nM

Question: How did the IC50 turn out when `N#Cc1cnc(N[C@@H](CCN(CCCCc2ccc3c(n2)NCCC3)CCOc2ccccc2)C(=O)O)nc1` [Compound 111, (S)-2-((5-cyanopyrimidin-2-yl)amino)-4-((2-phenoxyethyl) (4-(5,6,7,8-tetrahydro-1,8-naphthyridin-2-yl)butyl)amino) butanoic Acid] was run?
Answer: < 50 nM

Question: Which IC50 does the source give for `O=C(O)[C@H](CCN(CCCCc1ccc2c(n1)NCCC2)CC(F)F)Nc1ncnc2[nH]ncc12` [Compound 112, (S)-2-((1H-pyrazolo[3,4-d]pyrimidin-4-yl)amino)-4-((2,2-difluoroethyl) (4-(5,6,7,8-tetrahydro-1,8-naphthyridin-2-yl)butyl)amino) butanoic Acid] here?
Answer: 250 to 1000 nM

Question: How did the IC50 turn out when `O=C(O)[C@H](CCN(CCCCc1ccc2c(n1)NCCC2)C1CC1)Nc1ncc(C(F)(F)F)cn1` [Compound 114, (S)-4-(cyclopropyl(4-(5,6,7,8-tetrahydro-1,8-naphthyridin-2-yl)butyl)amino)-2-((5-(trifluoromethyl)pyrimidin-2-yl)amino) butanoic Acid] was run?
Answer: < 50 nM
